Source: patent US10017535B2, “Amphiphilic compounds with neuroprotective properties” (USTAV ORGANICKE CHEMIE A BIOCHEMIE AV CR, v.v.i., priority 2014, dated 2018)

Assays:
[1] = target: T1, NR1-1a/NR2B NMDA receptor (Rattus norvegicus, UniProt P35439+Q00960); experiment: Patch-clamp inhibition of glutamate-evoked currents at recombinant NMDA receptors in transfected HEK293 cells; type: cell-based; conditions: for IC50: calculated from relative steroid-induced inhibition, Hill's coefficient 1.2, read-out: IC50
T1 construct: expressed in transfected cells; host or cells: HEK293 cells (ATCC CRL1573)
T1 sequence (Q00960 27-1482, other chains not shown): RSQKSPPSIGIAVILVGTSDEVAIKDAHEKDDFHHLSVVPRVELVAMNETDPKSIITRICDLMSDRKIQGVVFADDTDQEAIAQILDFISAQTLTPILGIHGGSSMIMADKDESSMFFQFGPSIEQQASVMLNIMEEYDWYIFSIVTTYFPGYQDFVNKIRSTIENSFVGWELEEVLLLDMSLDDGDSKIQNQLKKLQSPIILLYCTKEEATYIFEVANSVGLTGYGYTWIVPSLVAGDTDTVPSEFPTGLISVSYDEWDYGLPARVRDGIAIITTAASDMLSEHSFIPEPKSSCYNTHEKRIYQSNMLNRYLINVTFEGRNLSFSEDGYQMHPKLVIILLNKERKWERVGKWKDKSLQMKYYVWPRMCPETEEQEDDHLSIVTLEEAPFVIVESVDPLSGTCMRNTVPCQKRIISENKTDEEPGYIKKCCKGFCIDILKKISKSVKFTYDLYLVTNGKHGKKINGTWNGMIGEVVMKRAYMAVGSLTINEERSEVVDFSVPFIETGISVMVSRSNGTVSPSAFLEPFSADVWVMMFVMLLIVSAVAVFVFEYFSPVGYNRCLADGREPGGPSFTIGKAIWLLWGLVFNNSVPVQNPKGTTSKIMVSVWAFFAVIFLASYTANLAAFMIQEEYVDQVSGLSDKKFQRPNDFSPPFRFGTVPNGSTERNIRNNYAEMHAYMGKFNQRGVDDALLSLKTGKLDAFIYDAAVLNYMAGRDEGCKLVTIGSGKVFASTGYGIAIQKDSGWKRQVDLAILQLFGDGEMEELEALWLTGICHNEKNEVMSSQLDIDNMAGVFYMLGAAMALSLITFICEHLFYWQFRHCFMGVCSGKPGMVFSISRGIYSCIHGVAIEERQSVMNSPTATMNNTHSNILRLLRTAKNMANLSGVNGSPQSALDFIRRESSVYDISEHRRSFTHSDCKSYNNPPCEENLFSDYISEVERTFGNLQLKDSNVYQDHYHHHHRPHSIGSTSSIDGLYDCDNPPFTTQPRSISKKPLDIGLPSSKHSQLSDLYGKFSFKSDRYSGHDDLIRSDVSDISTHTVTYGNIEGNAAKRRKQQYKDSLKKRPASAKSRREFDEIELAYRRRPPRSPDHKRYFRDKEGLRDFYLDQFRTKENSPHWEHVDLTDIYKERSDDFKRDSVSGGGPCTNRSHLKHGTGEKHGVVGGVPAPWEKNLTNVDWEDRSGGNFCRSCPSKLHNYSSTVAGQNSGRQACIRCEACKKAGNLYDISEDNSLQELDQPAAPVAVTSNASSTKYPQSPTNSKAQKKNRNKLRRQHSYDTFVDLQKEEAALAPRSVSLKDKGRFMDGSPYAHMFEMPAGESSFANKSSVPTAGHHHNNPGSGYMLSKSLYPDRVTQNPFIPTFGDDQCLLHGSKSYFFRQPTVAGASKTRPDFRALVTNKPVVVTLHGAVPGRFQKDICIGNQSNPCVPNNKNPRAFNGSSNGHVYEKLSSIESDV
Procedure, shortened: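 HEK293 cells co-transfected with rat NR1-1a/NR2B plus GFP were whole-cell patch-clamped 16-40 h post-transfection at −60 mV. Currents were evoked by 1 mmol·l^−1 glutamate with 10 μmol·l^−1 glycine in ECS pH 7.3, and steroid was co-applied in DMSO via fast perfusion. IC50 came from relative inhibition.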

[2] = test system: laboratory mice, strain CD-1; experiment: Elevated plus maze (anxiety); type: in vivo; conditions: vs saline and CDX controls
Experimental: (§1) In the Experimental Part 1 were used adults (30-35 g) male laboratory mice, strain CD-1 from Velaz facility, Czech Republic. Mice were housed in plastic boxes with a 12-hour light cycle (lights on at 7:00 pm). Mice had free access to food and water.
Amphiphilic steroid compounds were dissolved in a solution of 3 g (2-hydroxypropyl)-β-cyclodextrin (CDX, Sigma-Aldrich) and 157 mg of citric acid ([…], Sigma-Aldrich) in 30 ml of distilled water, the pH was adjusted to 7.4 using sodium hydroxide (NaOH, Sigma-Aldrich). Thus there were prepared solutions of the four steroids for application rates of 0.1, 1, 10 and 100 mg/kg.
The elevated plus maze (EPM) experiment was used to determine the effect of compounds on anxiety of animals at a dose of 1 mg/kg. Two control groups of animals were used to which was applied physiological saline and CDX solution, respectively. A noncompetitive NMDA receptor antagonist—ketamine (10 mg/kg) was given to a comparative group. The compounds were administered to mice intraperitoneally 30 minutes before testing in the EPM.

[3] = test system: laboratory mice, strain CD-1; experiment: Forced swimming test (antidepressant effect); type: in vivo; on Forced Swimming Test Reduced Floating: key: −: the desired effect was not observed; −/+: the desired effect was insufficient; +: the desired effect was observed
Experimental: as §1
This assay was used to monitor the antidepressant effect. Animals float 6 minutes in acrylic cylinder in water at 24° C. A period of immobility is evaluated. The reduction is a manifestation of anti-depressant properties of drugs.

[4] = 1 mg/kg i.p., 30 minutes before testing

Molecule	inhibition at 1 µM ([1]; HEK293, read-out: Mean % change ± SD)	IC50 [1]	number of entries into the open arms [2, 4]	total time spent in the open arms [2, 4]	number of entries into the open arms ([2]; 10 mg/kg)	total time spent in the open arms ([2]; 10 mg/kg)	Forced Swimming Test Reduced Floating [3]	flotation (immobility) ([3]; 1 mg/kg)	latency to the first flotation ([3]; 1 mg/kg)	inhibition at 10 µM ([1]; HEK293, steroid concentration 10 μmol·l^−1, 1 mmol·l^−1 glutamate, −60 mV, read-out: Mean % change ± SD)	Mean % change ± SD ([1]; steroid concentration 100 μmol·l^−1, 1 mmol·l^−1 glutamate, −60 mV)
C[C@@]12CCC[C@H]1[C@@H]1CC[C@@H]3C[C@H](OC(=O)[C@@H](N)CCC(=O)O)CC[C@]3(C)[C@H]1CC2 [Compound 130, (4S)-4-Amino-5-(((3R,5R,8S,9S,10S,13S,14S)-10,13-dimethylhexadecahydro-1H-cyclopenta[a]phenanthren-3-yl)oxy)-5-oxopentanoic acid]	36.7 ± 7%	1.6 µM	significantly increased	significantly increased	not significantly altered	significant increase	+	significant decrease	longer latency		
C[C@@]12CCCCC1[C@@H]1CC[C@@H]3C[C@H](OC(=O)[C@@H](N)CCC(=O)O)CC[C@]3(C)[C@H]1CC2 (stereo partly drawn) [Compound 106, (4S)-4-Amino-5-(((2R,4aS,4bS,6aS,10bS,12aR)-4a,6a-dimethyloctadekahydrochrysen-2-yl)oxy)-5-oxopentanoic acid]		10.6 µM					−			48.7 ± 6.3%	
Pyridinium (3S,3aS,5bR,7aR,9R,11aS,11bS,13aR)-3,11a-dimethylhexadecahydro-1H,3H-naphtho[2′,1′:4,5]indeno[1,7a-c]furan-9-yl 9-sulfate [Compound 124]		51 µM					−				69.1 ± 4.0%
